Entries after “also recorded” stand apart in the source; their conditions may differ. Blank lines part the entries; values can stand above or below the molecule they belong to.
Legend:
caspase-9 = assay: Western blotting of full-length caspase-9 protein level; assay type: cell-based, human; settings: MDA-MB-435 cells, 1 μM, after 24 hours, maintained up to 72 hours
Experimental: (§1) Cells were detached using 1×trypsin-EDTA solution and collected by centrifugation at 1200 rpm for 5 min. Cells were then lysed in 80 μL of 1× cell lysis buffer (50 mM Tris-HCl, pH 7.5, 150 mM NaCl, and 1% NP-40) and pelleted by centrifugation at 14,000 rpm for 20 min at 4° C. Protein concentration of the whole cell lysates was measured using BCA protein assay and equal amounts of total protein were resolved on a 10% tris-glycine gel via SDS-PAGE. The separated proteins were electro-blotted onto nitrocellulose membrane and blocked in 5% BSA/PBS for 1 h at room temperature. The membrane was probed with anti-p53 (SC-126, Santa Cruz Biotechnology Inc.), anti-caspase 9 (Cat. no. 9508; Cell Signaling Technology), anti-a-tubulin (SC-5286, Santa Cruz Biotechnology Inc.), and anti-GAPDH(Y3322GAPDH, Biochain Institute, Inc.) antibodies at 4 C overnight. Horseradish peroxidase-conjugated secondary antibodies (Invitrogen, Carlsbad, Calif.) in combination with SuperSignal Dura (ThermoFisher, Rockford, Ill.) enhanced chemiluminescence (ECL) solutions were used to visualize proteins of interest with a ChemiDoc Imaging system (Bio-Rad, Hercules, Calif.).

[1] = tested on: HCT116 p53^−/− colon cancer cell line; assay: MTT cytotoxicity assay, HCT116 p53-/-; assay type: cell-based; settings: Homo sapiens, HCT-116, 72 h exposure
From the text: (§2) The human breast cancer cell line MDA-MB-435 and the colon cancer cell line HT29 were purchased from the American Type Cell Culture (Manassas, Va.). Colon cancer cell lines HCT116 p53^+/+ and HCT116 p53^−/− were kindly provided by Dr. Bert Vogelstein (Johns Hopkins Medical Institutions, Baltimore, Md.). The human ovarian carcinoma cell line (HEY), naturally resistant to cisplatin (CDDP), was kindly provided by Dr. Louis Dubeau (USC Norris Cancer Center). The bladder cancer cell lines were kindly provided by Dr. Richard Cote (USC Keck School of Medicine). Cells were maintained as monolayer cultures in the appropriate media: RPMI-1640 (HT29, HCT116 p53^+/+, HCT116 p53^−/−, and HEY cell lines) or DMEM (MDA-MB-435 and UMUC3 cell lines) supplemented with 10% fetal bovine serum (FBS) (HyClone, Road Logan, Utah) at 37° C. in a humidified atmosphere of 5% CO2. To remove the adherent cells from the flask for subculture and counting, cells were washed with PBS without calcium or magnesium, incubated with a small volume of 1×trypsin-EDTA solution (Sigma-Aldrich, St. Louis, Mo.) for 5 min, resuspended with fresh culture medium, and centrifuged at 1200 rpm for 5 min. All experiments were performed using cells in exponential growth phase. Cells were routinely checked for Mycoplasma contamination using PlasmaTest kit (InvivoGen, San Diego, Calif.).
(§3) Cytotoxicity was assessed by MTT assay as described previously. 43 In brief, cells were seeded in 96-well microtiter plates and allowed to attach overnight. Cells were subsequently treated with continuous exposure to corresponding drugs for 72 h. At the end of treatments, an MTT solution (at a final concentration of 0.5 mg/mL) was added to each well, and cells were incubated for 4 h at 37° C. After removal of the supernatant, DMSO was added, and the absorbance was read at 570 nm. All assays were done in triplicate. The IC50 was then determined for each drug from a plot of log(drug concentration) versus percentage of cells killed.

[2] = tested on: doxorubicin-resistant NCI/ADR-RES ovarian cancer cell line; assay: Cytotoxicity assay, NCI/ADR-RES; assay type: cell-based; settings: Homo sapiens, MTT, 72 h exposure (Table 2)
Procedure, shortened: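 Cells attached overnight, then continuously exposed to drug for 72 h. MTT (0.5 mg/mL final) added 4 h at 37 °C, formazan dissolved in DMSO, absorbance at 570 nm, triplicates; IC50 from log concentration versus % cells killed.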

p53 = assay: Western blotting of p53 protein level; assay type: cell-based, human; settings: MDA-MB-435 cells, 1 μM, 24 to 72 hours
Experimental: as §1

MDA-MB-435 cells [3] = assay: Mitochondrial superoxide production (MitoSOX Red); assay type: cell-based, human; settings: IC50 or 3×IC50, 24 hours
Experimental: After drug treatments, a solution of 5 μM MitoSOX Red mitochondrial superoxide indicator (Invitrogen, Carlsbad, Calif.) was added, and cells were incubated for 10 min at 37° C. Cells were then washed three times with Hank's balanced salt solution (HBSS) to remove excess MitoSOX. After washing, cells were either observed under the fluorescence microscope or collected by trypsinization, washed twice with HBSS, and measured for superoxide production using a BD LSRII flow cytometer (BD Biosciences, San Jose, Calif., USA). Data were analyzed with the BD FACSDiva software package (BD Biosciences, San Jose, Calif., USA).

[4] = tested on: HCT116 p53^+/+ colon cancer cell line; assay: MTT cytotoxicity assay, HCT116 p53+/+; assay type: cell-based; settings: Homo sapiens, HCT-116, 72 h exposure
From the text: as §2, §3

[5] = tested on: HT29 colon cancer cell line; assay: MTT cytotoxicity assay, HT29; assay type: cell-based; settings: Homo sapiens, HT-29, 72 h exposure
From the text: as §2, §3

SOD1 = assay: Kinexus 628-antibody microarray; assay type: cell-based, human; settings: MDA-MB-435 cells, 0.1 μM, 24 h
From the text: To better understand the mechanisms of action of this class of novel PACMA compounds, we subjected cell lysates from untreated and compound 1-treated MDA-MB-435 cells to the Kinexus 628-antibody microarray analysis in search of potential signaling molecules; 350 pan-specific and 270 phospho-site antibodies were included to track changes in protein expression and phosphorylation status. The cell lysates were run in parallel on the Kinexus antibody chip and the differential binding of dye-labeled proteins was detected and quantified. Proteins with significant expression changes were then identified and used as the basis for signaling pathway interpretation.
MDA-MB-435 cells were treated with 0.1 μM compound 1 for 24 h. After treatment, cells were washed with ice-cold PBS to remove residual medium. Cells were then lysed in 200 μL of lysis buffer (20 mM MOPS, pH 7.0, 2 mM EGTA, 5 mM EDTA, 30 mM sodium fluoride, 60 mM β-glycerophosphate, pH 7.2, 20 mM sodium pyrophosphate, 1 mM sodium orthovanadate, 1 mM phenylmethylsulfonylfluoride, 3 mM benzamidine, 5 μM pepstatin A, 10 μM leupeptin, 1% Triton X-100, 1 mM dithiothreitol) and collected into a microcentrifuge tube. […] The supernatants were then transferred to a cleanmicrocentrifuge tube, and the protein concentrations were measured using BCA protein assay. […]

[6] = tested on: HEY ovarian cancer cell line; assay: Cytotoxicity assay, HEY; assay type: cell-based; settings: Homo sapiens; MTT, 72 h exposure (Table 2)
Procedure, shortened: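 Cells were seeded, allowed to attach overnight, then exposed continuously to drug for 72 h. MTT (0.5 mg/mL final) was added for 4 h at 37 °C, formazan was dissolved in DMSO and absorbance read at 570 nm. IC50 came from log(drug concentration) versus percent cells killed, triplicate.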

MDA-MB-435 cells [7] = assay: Apoptosis assay, annexin V/propidium iodide flow cytometry; assay type: cell-based, human; settings: for induction of apoptosis: 24 and 48 hours
Experimental: To quantify drug-induced apoptosis, annexin V/propidium iodide staining was performed and analyzed by flow cytometry. MDA-MB-435 cells were treated with 10 μM compound 1, 2, or 4 for 24 and 48 h. After treatment, both floating and adherent cells were combined and subjected to annexin V/propidium iodide staining using an annexin V-FITC apoptosis detection kit (Oncogene Research Products, San Diego, Calif.) according to manufacturer's recommendations. Untreated control cells (48 h) were maintained in parallel to drugtreated groups. Double staining was used to distinguish between viable, early apoptotic, and necrotic or late apoptotic cells. The resulting fluorescence (FITC-A channel for green fluorescence and PE-A channel for red fluorescence) was measured by flow cytometry using a BD LSRII flow cytometer (BD Biosciences, San Jose, Calif.).

[8] = tested on: 5637 bladder cancer cell line; assay: MTT cytotoxicity assay, 5637; assay type: cell-based, human; settings: for IC50: Homo sapiens, 72 h exposure
From the text: as §2, §3

[9] = tested on: UMUC3 bladder cancer cell line; assay: MTT cytotoxicity assay, UMUC3; assay type: cell-based; settings: Homo sapiens, 72 h exposure
From the text: as §2, §3

[10] = tested on: MDA-MB-435 breast cancer cell line; assay: MTT cytotoxicity assay, MDA-MB-435; assay type: cell-based, human
From the text: as §2, §3

[11] = Pharmacokinetics study after i.p. administration; assay type: in vivo, mice; settings: mouse, ip
Experimental: To assess the efficacy, tolerability, and pharmacokinetics of these novel compounds following i.p. administration, the pharmacokinetic profile of compounds 4 and 9 was evaluated (Table 3). Mice were treated with compounds 4 and 9 via i.p. injection and serial blood sampling was determined at indicated times after administration. The plasma concentration was determined using a validated liquid chromatography mass spectrometry (LC-MS) method where the lowest level of quantification was 1 ng/mL. One hour following i.p. administration of compounds 4 and 9, their concentrations in the blood were 344 and 6.2 ng/mL, respectively. […] The half-lives of compounds 4 and 9 via i.p. administration were determined to be approximately 3.5 and 9.3 hours, respectively, when a non-compartmental pharmacokinetics analysis was used. The favorable pharmacokinetics profile of compounds 4 and 9 is consistent with the ADMET predictions described previously.
Preliminary pharmacokinetics of compounds 4 and 9 were performed using 18 mice, each time point consisting of two mice. Mice were stratified to various doses given as an i.p. injection of compounds 4 and 9 (24 mg/kg). At the specified time points following drug administration, blood was collected with heparinized syringes. The samples were allowed to settle in 500 μL eppendorf vials and then centrifuged at 1500 rpm for 10 min. The plasma was removed, transferred into new eppendorf tube, and frozen at −80° C. until analysis.

MDA-MB-435 cells [12] = assay: Cell cycle analysis by propidium iodide flow cytometry; assay type: cell-based, human
Experimental: Cell cycle perturbations were analyzed by propidium iodide DNA staining. Exponentially growing MDA-MB-435 cells were treated with 5 μM compound 4 for 6, 12, and 24 h. At the end of treatment, cells were collected and washed with 1×PBS after a gentle centrifugation at 1500 rpm for 5 min. Cells were then thoroughly resuspended in 0.5 mL of PBS and fixed in 70% ethanol overnight at 4° C. Ethanol-fixed cells were centrifuged at 3000 rpm for 5 min and washed twice in PBS to remove residual ethanol. For cell cycle analysis, the pellets were resuspended in 1 mL of PBS containing 0.02 mg/mL of propidium iodide and 0.5 mg/mL of DNase-free RNase A and incubated at 37° C. for 30 min. Cell cycle profiles were obtained using a BD LSRII flow cytometer (BD Biosciences, San Jose, Calif.). Propidium iodide was excited using a 488 nm blue argon laser. Resulting fluorescence was measured using a PMT detector equipped with 550 nm long pass dichroic mirror and 575/26 bandpass filter. Data were analyzed with the ModFit LT software package (Verify Software House, Inc., Topsham, Me.).

panel of cancer cells = assay: MTT cytotoxicity of compound 4 across tested cell lines (FIG. 2B); assay type: cell-based; settings: Homo sapiens, MTT assays
Experimental: as §3

SMILES: C#CC(=O)N(c1cc(OC)cc(OC)c1)C(C(=O)NC1CCCCC1)c1ccc(OC)cc1 (stereo not shown) [Compound 1, N-[2-(Cyclohexylamino)-1-(4-methoxyphenyl)-2-oxoethyl]-N-(3,5-dimethoxyphenyl)Propynamide]
decrease in full-length caspase-9 protein level (caspase-9): 2 fold
IC50 [1]: 11 µM
IC50 [2]: 0.3 µM
p53 protein level (p53): up-regulated
mitochondrial superoxide production, flow cytometry (MDA-MB-435 cells [3]): induce significant amounts of superoxide
IC50 [4]: 12.5 ± 2.1 µM
IC50 [5]: 6.3 ± 1.5 µM
SOD1 expression (SOD1): up-regulated
IC50 [6]: 4.4 ± 3 µM
induction of early apoptosis (MDA-MB-435 cells [7]; 10 μM, 24 hours): failed to induce early apoptosis
increase in early apoptotic cells (MDA-MB-435 cells [7]; 10 μM, 48 h): 8%
percentage of late apoptotic cells (MDA-MB-435 cells [7]; 10 μM, 48 hours): 35%
induction of apoptosis (MDA-MB-435 cells [7]): induce apoptosis
IC50 [8]: 2.2 ± 0.2 µM
IC50 [9]: > 20 µM

AUC ([11]; in vivo, 24 mg/kg): 520 ng·h/mL
Cmax ([11]; in vivo, 24 mg/kg): 344 ng/mL
Kel ([11]; in vivo, 24 mg/kg): 0.206 h⁻¹
Tmax ([11]; in vivo, 24 mg/kg): 1.0 h
half-life ([11]; in vivo, 24 mg/kg): ~3.5 h
t1/2 ([11]; in vivo, 24 mg/kg): 3.5 h
concentration at 1 h ([11]; plasma, mice, 24 mg/kg i.p., 1 hour, read-out: concentration in the blood one hour following i.p. administration): 344 ng/mL
SMILES: C#CC(=O)N(c1ccc(-n2cnnn2)c(C)c1)C(C(=O)NC1CCCC1)c1ccccc1F (stereo not shown) [Compound 4, N-[2-(Cyclopentylamino)-1-(2-fluorophenyl)-2-oxoethyl]-N-[3-methyl-4-(1H-tetraazol-1-yl)phenyl]Propynamide]
cytotoxic potency in MDA-MB-435 cells [10]: one of the most active compounds
IC50 [1]: 5.5 ± 0.7 µM
IC50 [2]: 1 ± 0.3 µM
mitochondrial superoxide production, flow cytometry (MDA-MB-435 cells [3]): induce significant amounts of superoxide
IC50 [4]: 6.3 ± 1.8 µM
cell cycle perturbation (MDA-MB-435 cells [12]; 5 μM, 6, 12 and 24 hours): induced both S- and G2/M-arrest; also recorded: block cell cycle progression at both S and G2/M phases
increase in number of cells retained in G2/M phase vs untreated control (MDA-MB-435 cells [12]; 5 μM, 24 hours): 7%
increase in number of cells retained in S phase vs untreated control (MDA-MB-435 cells [12]; 5 μM, 24 hours): 10%
IC50 [5]: 1.8 ± 1.7 µM
IC50 [6]: 1.5 ± 0.8 µM
percentage of late apoptotic cells (MDA-MB-435 cells [7]; 10 μM, 24 hours): 27%
percentage of early apoptotic cells (MDA-MB-435 cells [7]; 10 μM, 48 hours): 24%
percentage of late apoptotic cells (MDA-MB-435 cells [7]; 10 μM, 48 hours): 62%
induction of apoptosis (MDA-MB-435 cells [7]): induce apoptosis
cytotoxic potency in 5637 cells [8]: remarkable potency
IC50 [8]: 0.7 ± 0.5 µM
IC50 (panel of cancer cells): 1 to 2.5 µM
IC50 [9]: 6.3 ± 1 µM
